# PMC5218480 (PLoS ONE, 2017)
# Tested on: MV-4-11 cells
# Assay: Gene expression microarray analysis (Affymetrix PrimeView) and GSEA
# Assay type: cell-based, human
# Design: RFU PODN (11730768_x_at) / Fold change /veh PODN (11730768_x_at) / RFU LINC00158 (11744669_a_at) / Fold change /veh LINC00158 (11744669_a_at) / RFU DUSP10 (11751237_a_at) / Fold change /veh DUSP10 (11751237_a_at) / RFU ID3 (11757404_x_at) / Fold change /veh ID3 (11757404_x_at) / RFU PLEKHG5 (11737974_s_at) / Fold change /veh PLEKHG5 (11737974_s_at) / RFU LRRC4B (11730491_at) / Fold change /veh LRRC4B (11730491_at) / RFU GIMAP4 (11747438_a_at) / Fold change /veh GIMAP4 (11747438_a_at) / RFU KRT8 (11758183_x_at) / Fold change /veh KRT8 (11758183_x_at) / RFU CNN1 (11734310_a_at) / Fold change /veh CNN1 (11734310_a_at) / RFU VPS37D (11726825_at) / Fold change /veh VPS37D (11726825_at) / RFU C10orf10 (11716522_x_at) / Fold change /veh C10orf10 (11716522_x_at) / RFU KIR2DL2 /// KIR2DL4 /// KIR2DL5A /// KIR2DL5B /// KIR2DS1 /// KIR2DS2 /// KIR2DS3 /// KIR2DS4 /// KIR3DL3 /// KIR3DL3 /// KIR3DS1 (11738374_at) / Fold change /veh KIR2DL2 /// KIR2DL4 /// KIR2DL5A /// KIR2DL5B /// KIR2DS1 /// KIR2DS2 /// KIR2DS3 /// KIR2DS4 /// KIR3DL3 /// KIR3DL3 /// KIR3DS1 (11738374_at) / RFU C1QL1 (11718748_at) / Fold change /veh C1QL1 (11718748_at) / RFU TMPRSS4 (11747572_a_at) / Fold change /veh TMPRSS4 (11747572_a_at) / RFU HAMP (11756126_x_at) / Fold change /veh HAMP (11756126_x_at) / RFU RNFT2 (11725882_a_at) / Fold change /veh RNFT2 (11725882_a_at) / RFU NR4A2 (11747474_a_at) / Fold change /veh NR4A2 (11747474_a_at) / RFU ABCC12 (11746883_a_at) / Fold change /veh ABCC12 (11746883_a_at) / RFU TMEM136 (11760407_x_at) / Fold change /veh TMEM136 (11760407_x_at) / RFU CLDN22 /// WWC2 (11732394_at) / Fold change /veh CLDN22 /// WWC2 (11732394_at) / RFU HLA-DPB1 (11760878_x_at) / Fold change /veh HLA-DPB1 (11760878_x_at) / RFU SPINT1 (11716480_a_at) / Fold change /veh SPINT1 (11716480_a_at) / RFU GAP43 (11754022_s_at) / Fold change /veh GAP43 (11754022_s_at) / RFU A4GNT (11735810_at) / Fold change /veh A4GNT (11735810_at) / RFU PRB3 (11715151_x_at) / Fold change /veh PRB3 (11715151_x_at) / RFU TUBB4B (11761932_at) / Fold change /veh TUBB4B (11761932_at) / RFU CAPN14 (11732068_a_at) / Fold change /veh CAPN14 (11732068_a_at) / RFU TMCC2 (11721928_a_at) / Fold change /veh TMCC2 (11721928_a_at) / RFU IRGQ (11745062_a_at) / Fold change /veh IRGQ (11745062_a_at) / RFU FAM174B (11720279_a_at) / Fold change /veh FAM174B (11720279_a_at) / RFU TMPRSS4 (11748680_a_at) / Fold change /veh TMPRSS4 (11748680_a_at) / RFU FAM212B (11763350_a_at) / Fold change /veh FAM212B (11763350_a_at) / RFU PLEKHG5 (11743358_a_at) / Fold change /veh PLEKHG5 (11743358_a_at) / RFU ZSCAN30 (11745921_a_at) / Fold change /veh ZSCAN30 (11745921_a_at) / RFU CMKLR1 (11741424_a_at) / Fold change /veh CMKLR1 (11741424_a_at) / RFU LOC101060620 /// MAPK8IP1 (11723275_at) / Fold change /veh LOC101060620 /// MAPK8IP1 (11723275_at) / RFU SPTSSB (11747773_x_at) / Fold change /veh SPTSSB (11747773_x_at) / RFU PRSS12 (11739890_at) / Fold change /veh PRSS12 (11739890_at) / RFU BIN1 (11741810_x_at) / Fold change /veh BIN1 (11741810_x_at) / RFU WNT11 (11732464_a_at) / Fold change /veh WNT11 (11732464_a_at) / RFU C10orf10 (11716521_a_at) / Fold change /veh C10orf10 (11716521_a_at) / RFU C5orf56 (11738089_at) / Fold change /veh C5orf56 (11738089_at) / RFU CYB561 (11721691_x_at) / Fold change /veh CYB561 (11721691_x_at) / RFU ANKRD19P (11752326_a_at) / Fold change /veh ANKRD19P (11752326_a_at) / RFU OR2T12 /// OR2T33 /// OR2T8 (11738714_s_at) / Fold change /veh OR2T12 /// OR2T33 /// OR2T8 (11738714_s_at) / RFU VCAN (11748164_a_at) / Fold change /veh VCAN (11748164_a_at) / RFU JSRP1 (11732532_at) / Fold change /veh JSRP1 (11732532_at) / RFU KRTAP10-11 (11738290_x_at) / Fold change /veh KRTAP10-11 (11738290_x_at) / RFU MYO3A (11730013_a_at) / Fold change /veh MYO3A (11730013_a_at) / RFU EBF3 (11725865_a_at) / Fold change /veh EBF3 (11725865_a_at) / RFU CAMK2N1 (11719241_x_at) / Fold change /veh CAMK2N1 (11719241_x_at) / RFU C5orf56 (11738088_a_at) / Fold change /veh C5orf56 (11738088_a_at) / RFU OLFML3 (11715873_a_at) / Fold change /veh OLFML3 (11715873_a_at) / RFU LOC100653217 /// NTM (11731650_a_at) / Fold change /veh LOC100653217 /// NTM (11731650_a_at) / RFU MAPK11 (11762145_a_at) / Fold change /veh MAPK11 (11762145_a_at) / RFU FIZ1 (11724087_x_at) / Fold change /veh FIZ1 (11724087_x_at) / RFU OASL (11726364_x_at) / Fold change /veh OASL (11726364_x_at) / RFU SOX15 (11748057_x_at) / Fold change /veh SOX15 (11748057_x_at) / RFU CD79A (11719716_a_at) / Fold change /veh CD79A (11719716_a_at) / RFU HIST1H1D (11736915_at) / Fold change /veh HIST1H1D (11736915_at) / RFU CASKIN2 (11723855_a_at) / Fold change /veh CASKIN2 (11723855_a_at) / RFU LOC730098 (11760151_x_at) / Fold change /veh LOC730098 (11760151_x_at) / RFU OR4N2 (11742367_at) / Fold change /veh OR4N2 (11742367_at) / RFU PRRT2 (11749266_a_at) / Fold change /veh PRRT2 (11749266_a_at) / RFU SNX32 (11753110_a_at) / Fold change /veh SNX32 (11753110_a_at) / RFU CDHR5 (11726645_a_at) / Fold change /veh CDHR5 (11726645_a_at) / RFU RCAN1 (11760418_a_at) / Fold change /veh RCAN1 (11760418_a_at) / RFU FAM167A (11723789_a_at) / Fold change /veh FAM167A (11723789_a_at) / RFU FAM26E (11764081_at) / Fold change /veh FAM26E (11764081_at) / RFU ISYNA1 (11749810_s_at) / Fold change /veh ISYNA1 (11749810_s_at) / RFU ACY1 (11761880_at) / Fold change /veh ACY1 (11761880_at) / RFU 11764098_at / Fold change /veh 11764098_at / RFU SAMD14 (11745864_x_at) / Fold change /veh SAMD14 (11745864_x_at) / RFU NPB (11741838_a_at) / Fold change /veh NPB (11741838_a_at) / RFU TMPRSS6 (11731388_a_at) / Fold change /veh TMPRSS6 (11731388_a_at) / RFU KRTAP10-2 (11738614_at) / Fold change /veh KRTAP10-2 (11738614_at) / RFU ARHGAP8 /// PRR5-ARHGAP8 (11727945_x_at) / Fold change /veh ARHGAP8 /// PRR5-ARHGAP8 (11727945_x_at) / RFU KRTAP5-7 /// NADSYN1 (11734609_at) / Fold change /veh KRTAP5-7 /// NADSYN1 (11734609_at) / RFU RASL12 (11751679_a_at) / Fold change /veh RASL12 (11751679_a_at) / RFU CDKN2B (11736163_a_at) / Fold change /veh CDKN2B (11736163_a_at) / RFU PRF1 (11729649_at) / Fold change /veh PRF1 (11729649_at) / RFU, ZNF638 /// ZNF638-IT1 / Fold change vs veh, ZNF638 /// ZNF638-IT1 / RFU, PANK3 / Fold change vs veh, PANK3 / RFU, SH3YL1 / Fold change vs veh, SH3YL1 / RFU, ZEB2 / Fold change vs veh, ZEB2 / RFU, NRIP1 / Fold change vs veh, NRIP1 / RFU, PTTG1IP / Fold change vs veh, PTTG1IP / RFU, CAPN2 / Fold change vs veh, CAPN2 / RFU, MED14 / Fold change vs veh, MED14 / RFU, SNORA58 / Fold change vs veh, SNORA58 / RFU, C1orf63 / Fold change vs veh, C1orf63 / RFU, LRRFIP1 / Fold change vs veh, LRRFIP1 / RFU, NDUFAF7 / Fold change vs veh, NDUFAF7 / RFU, SLC12A2 / Fold change vs veh, SLC12A2 / RFU, IBTK / Fold change vs veh, IBTK / RFU, ESF1 / Fold change vs veh, ESF1 / Fold change vs veh, TMEM50B / RFU, TAOK1 / Fold change vs veh, TAOK1 / RFU, ACBD3 / Fold change vs veh, ACBD3 / RFU, TMA16 / Fold change vs veh, TMA16 / RFU, RWDD3 / Fold change vs veh, RWDD3 / RFU, BCAT1 / Fold change vs veh, BCAT1 / RFU, EDEM3 / Fold change vs veh, EDEM3 / RFU, TMEM33 / Fold change vs veh, TMEM33 / RFU, WDR75 / Fold change vs veh, WDR75 / RFU, AHCTF1 / Fold change vs veh, AHCTF1 / RFU, TFRC / Fold change vs veh, TFRC / RFU, ZDHHC17 / Fold change vs veh, ZDHHC17 / RFU, NOM1 / Fold change vs veh, NOM1 / RFU, ARL8B / Fold change vs veh, ARL8B / RFU, ZBTB11 / Fold change vs veh, ZBTB11 / RFU, TAMM41 / Fold change vs veh, TAMM41 / RFU, KIAA1704 /// LOC100996395 / Fold change vs veh, KIAA1704 /// LOC100996395 / RFU, ING1 / Fold change vs veh, ING1 / RFU, TRMT61B / Fold change vs veh, TRMT61B / RFU, FUBP3 / Fold change vs veh, FUBP3 / RFU, TP53 / Fold change vs veh, TP53 / RFU, TNKS2 / Fold change vs veh, TNKS2 / RFU, ZFP14 / Fold change vs veh, ZFP14 / RFU, ACTR2 / Fold change vs veh, ACTR2 / RFU, PPP3R1 / Fold change vs veh, PPP3R1 / RFU, PIK3R1 / Fold change vs veh, PIK3R1 / RFU, HNRNPA1 / Fold change vs veh, HNRNPA1 / RFU, RNF170 / Fold change vs veh, RNF170 / RFU, ZNF28 / Fold change vs veh, ZNF28 / RFU, RNGTT / Fold change vs veh, RNGTT / RFU, OGT / Fold change vs veh, OGT / RFU, BRD1 / Fold change vs veh, BRD1 / RFU, MARS / Fold change vs veh, MARS / RFU, ZNF655 / Fold change vs veh, ZNF655 / RFU, FAHD1 / Fold change vs veh, FAHD1 / RFU, BDP1 / Fold change vs veh, BDP1 / RFU, LRRCC1 / Fold change vs veh, LRRCC1 / RFU, ARID1A / Fold change vs veh, ARID1A / RFU, ZNF146 / Fold change vs veh, ZNF146 / RFU, ZNF330 / Fold change vs veh, ZNF330 / RFU, GPN3 / Fold change vs veh, GPN3 / RFU, C9orf123 / Fold change vs veh, C9orf123 / RFU, N4BP2L2 / Fold change vs veh, N4BP2L2 / RFU, ARFIP1 / Fold change vs veh, ARFIP1 / RFU, FAM179B / Fold change vs veh, FAM179B / RFU, BCL10 / Fold change vs veh, BCL10 / RFU, UHRF1BP1L / Fold change vs veh, UHRF1BP1L / RFU, BET1 / Fold change vs veh, BET1 / RFU, CNOT2 / Fold change vs veh, CNOT2 / RFU, ZNF268 / Fold change vs veh, ZNF268 / Fold change vs veh, ZNF507 / RFU, DGCR2 / Fold change vs veh, DGCR2 / RFU, WDSUB1 / Fold change vs veh, WDSUB1 / Fold change vs veh, HSP90B1 /// MIR3652 / RFU, ADSS / Fold change vs veh, ADSS / RFU, GK / Fold change vs veh, GK / RFU, ZNF148 / Fold change vs veh, ZNF148 / RFU, TAF9 / Fold change vs veh, TAF9 / RFU, SLC1A5 / Fold change vs veh, SLC1A5 / RFU, SLMO2 / Fold change vs veh, SLMO2 / RFU, ABCC4 / Fold change vs veh, ABCC4 / RFU, LOC101060439 /// RAP1B / Fold change vs veh, LOC101060439 /// RAP1B / RFU, RFX7 / Fold change vs veh, RFX7 / RFU, GTPBP10 / Fold change vs veh, GTPBP10 / RFU, CNEP1R1 / Fold change vs veh, CNEP1R1 / RFU, BIVM-ERCC5 /// ERCC5 / Fold change vs veh, BIVM-ERCC5 /// ERCC5 / RFU, ILF3 / Fold change vs veh, ILF3 / RFU 11762660_at / Fold change /veh 11762660_at / RFU VCAN (11757783_s_at) / Fold change /veh VCAN (11757783_s_at) / RFU DDX43 (11728927_at) / Fold change /veh DDX43 (11728927_at) / RFU KRT8 (11758188_x_at) / Fold change /veh KRT8 (11758188_x_at) / RFU NKD1 (11759106_at) / Fold change /veh NKD1 (11759106_at) / RFU SRD5A1 (11742802_a_at) / Fold change /veh SRD5A1 (11742802_a_at) / RFU TPSAB1 /// TPSB2 (11721975_s_at) / Fold change /veh TPSAB1 /// TPSB2 (11721975_s_at) / RFU GSTM3 (11746129_a_at) / Fold change /veh GSTM3 (11746129_a_at) / RFU IL23R (11737362_x_at) / Fold change /veh IL23R (11737362_x_at) / RFU TMEM51 (11727254_a_at) / Fold change /veh TMEM51 (11727254_a_at) / RFU PIWIL2 (11732686_x_at) / Fold change /veh PIWIL2 (11732686_x_at) / RFU ORM1 (11744905_x_at) / Fold change /veh ORM1 (11744905_x_at) / RFU CCDC152 (11743942_at) / Fold change /veh CCDC152 (11743942_at) / RFU ECM1 (11717891_a_at) / Fold change /veh ECM1 (11717891_a_at) / RFU IL23R (11748794_a_at) / Fold change /veh IL23R (11748794_a_at) / RFU TNFAIP8L3 (11732012_x_at) / Fold change /veh TNFAIP8L3 (11732012_x_at) / RFU MBOAT4 (11741988_at) / Fold change /veh MBOAT4 (11741988_at) / RFU 11764193_at / Fold change /veh 11764193_at / RFU TMEM53 (11763286_at) / Fold change /veh TMEM53 (11763286_at) / RFU MAGEB2 (11727129_at) / Fold change /veh MAGEB2 (11727129_at) / RFU TMEM200A (11744735_a_at) / Fold change /veh TMEM200A (11744735_a_at) / RFU CCDC152 (11751479_a_at) / Fold change /veh CCDC152 (11751479_a_at) / RFU FAM211A (11726209_a_at) / Fold change /veh FAM211A (11726209_a_at) / RFU RGS16 (11746705_a_at) / Fold change /veh RGS16 (11746705_a_at) / RFU VCAN (11755009_s_at) / Fold change /veh VCAN (11755009_s_at) / RFU RHOB (11743442_s_at) / Fold change /veh RHOB (11743442_s_at) / RFU RGS16 (11720943_a_at) / Fold change /veh RGS16 (11720943_a_at) / RFU RGS16 (11720944_at) / Fold change /veh RGS16 (11720944_at) / RFU, VPS4B / Fold change vs veh, VPS4B / RFU, CREB1 / Fold change vs veh, CREB1 / RFU, DNAJC13 / Fold change vs veh, DNAJC13 / RFU, GNAQ / Fold change vs veh, GNAQ / RFU, CDK5R1 / Fold change vs veh, CDK5R1 / RFU, ZRANB3 / Fold change vs veh, ZRANB3 / RFU, CUL4A / Fold change vs veh, CUL4A / RFU, CCNY / Fold change vs veh, CCNY / RFU, UFL1 / Fold change vs veh, UFL1 / RFU, COG3 / Fold change vs veh, COG3 / RFU, DIAPH2 / Fold change vs veh, DIAPH2 / RFU, SKA2 / Fold change vs veh, SKA2 / RFU, AFF3 / Fold change vs veh, AFF3 / RFU, LMF1 / Fold change vs veh, LMF1 / RFU, IPO11 / Fold change vs veh, IPO11 / RFU, DFFB / Fold change vs veh, DFFB / RFU, FOXP1 / Fold change vs veh, FOXP1 / RFU, CARD8 / Fold change vs veh, CARD8 / RFU, STRN3 / Fold change vs veh, STRN3 / RFU, ADK / Fold change vs veh, ADK / RFU, RASSF2 / Fold change vs veh, RASSF2 / RFU, WIPF1 / Fold change vs veh, WIPF1 / RFU, LARP1B / Fold change vs veh, LARP1B / RFU, RASA1 / Fold change vs veh, RASA1 / RFU, RB1 / Fold change vs veh, RB1 / RFU, PPFIA1 / Fold change vs veh, PPFIA1 / RFU, MAT2A / Fold change vs veh, MAT2A / RFU, CCT5 / Fold change vs veh, CCT5 / RFU, WDR92 / Fold change vs veh, WDR92 / RFU, CUX1 / Fold change vs veh, CUX1 / RFU, TTC7A / Fold change vs veh, TTC7A / RFU, TMEM135 / Fold change vs veh, TMEM135 / RFU, DEPTOR / Fold change vs veh, DEPTOR / RFU, CPM / Fold change vs veh, CPM / RFU, DNAJB6 / Fold change vs veh, DNAJB6 / RFU, CACNA2D3 / Fold change vs veh, CACNA2D3 / RFU, DTX4 / Fold change vs veh, DTX4 / RFU, TFCP2 / Fold change vs veh, TFCP2 / RFU, GMCL1 /// GMCL1P1 / Fold change vs veh, GMCL1 /// GMCL1P1 / RFU, AEBP2 / Fold change vs veh, AEBP2 / RFU, SNHG1 /// SNORD22 /// SNORD25 /// SNORD26 /// SNORD27 /// SNORD28 /// SNORD29 /// SNORD31 / Fold change vs veh, SNHG1 /// SNORD22 /// SNORD25 /// SNORD26 /// SNORD27 /// SNORD28 /// SNORD29 /// SNORD31 / Fold change (Aza/veh), C12orf56 (ProbeSet 11735607_a_at) / Fold change (ACY-1035/veh), C12orf56 (ProbeSet 11735607_a_at) / Fold change (Aza/veh), FGFR1OP (ProbeSet 11751329_s_at) / Fold change (ACY-1035/veh), FGFR1OP (ProbeSet 11751329_s_at) / Fold change (Aza/veh), VPS36 (ProbeSet 11739960_a_at) / Fold change (ACY-1035/veh), VPS36 (ProbeSet 11739960_a_at) / RFU SYPL1 (11715823_x_at) / Fold change /veh SYPL1 (11715823_x_at) / RFU IGFBP7 (11715501_s_at) / Fold change /veh IGFBP7 (11715501_s_at) / RFU REEP3 (11722064_at) / Fold change /veh REEP3 (11722064_at) / RFU IGLL1 (11728026_x_at) / Fold change /veh IGLL1 (11728026_x_at): dose or concentration left out as unconfirmed
# Conditions: ProbeSet 11726661_s_at; LIST B
smiles,measurement,value
Nc1ncn([C@@H]2O[C@H](CO)[C@@H](O)[C@H]2O)c(=O)n1 [azacitidine],"Fold change vs veh, GPN3",0.91
